Measured values: paper PMC10601206, “Adaptive laboratory evolution of Rhodococcus rhodochrous DSM6263 for chlorophenol degradation under hypersaline condition” (Microbial Cell Factories, 2023)

Experiments:
[1] = target: T1, PheA1A2 (PheA2A1, phenol monooxygenase) (Rhodococcus rhodochrous, UniProt A0ABY1MEQ0); experiment: HPLC of substrate depletion, product by LC-MS; format: cell-based; conditions: whole E. coli BL21(DE3) cells expressing PheA1A2, OD600 15, 100 mM PBS, 0.5 mM 4-chlorophenol; ortho hydroxylation
T1 construct: gene SAMN02745947_03917; both components co-expressed from pET28a in E. coli BL21(DE3), whole cells; with Phenol 2-monooxygenase, flavin reductase component
T1 sequence (A0ABY1MEQ0 1-537): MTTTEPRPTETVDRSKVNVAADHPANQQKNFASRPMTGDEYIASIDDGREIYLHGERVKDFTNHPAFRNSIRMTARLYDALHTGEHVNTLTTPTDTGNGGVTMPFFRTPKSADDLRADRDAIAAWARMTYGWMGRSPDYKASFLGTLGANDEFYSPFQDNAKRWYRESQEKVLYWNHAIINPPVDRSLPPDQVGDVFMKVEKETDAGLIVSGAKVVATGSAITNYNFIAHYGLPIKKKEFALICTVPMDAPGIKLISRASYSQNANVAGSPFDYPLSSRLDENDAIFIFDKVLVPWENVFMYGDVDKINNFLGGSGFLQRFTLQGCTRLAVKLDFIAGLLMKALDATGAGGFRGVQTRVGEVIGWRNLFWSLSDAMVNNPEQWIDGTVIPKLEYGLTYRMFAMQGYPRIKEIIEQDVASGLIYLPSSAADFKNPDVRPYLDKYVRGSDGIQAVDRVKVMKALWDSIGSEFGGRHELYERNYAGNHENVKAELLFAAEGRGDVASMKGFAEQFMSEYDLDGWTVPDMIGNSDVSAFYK

[2] = target: T1, PheA1A2 (PheA2A1, phenol monooxygenase); experiment: HPLC of substrate depletion; format: cell-based; conditions: whole E. coli BL21(DE3) cells expressing PheA1A2; ortho hydroxylation

Row | SMILES | HPLC of substrate depletion, product by LC-MS [1] | HPLC of substrate depletion [2]
1 | Oc1ccc(Cl)cc1 [4-chlorophenol] | The ortho hydroxylation enzyme activity to phenol, 4-chlorophenol | 
2 | Oc1ccccc1 [phenol] |  | The ortho hydroxylation enzyme activity to phenol, 4-chlorophenol
